# Laboratory results: US12617752B2, “Rapidly metabolized lipid compound” (Beijing Jitai Life Sciences Ltd, priority 2023, dated 2026)
# Key:
# [1] = Particle size and PDI of lipid nanoparticles by dynamic light scattering; type: physicochemical; settings: lipid nanoparticles with luciferase mRNA; ionizable lipid/cholesterol/DSPC/DMG-PEG2000 50/38.5/10/1.5 mol%
# Procedure, shortened: (§1)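 LNPs of ionizable lipid/cholesterol/phospholipid/PEG-lipid (50/38.5/10/1.5 mol%, N/P 6) were formed by microfluidic mixing with mRNA in pH 4.5 acetate, then buffer-exchanged by ultrafiltration. Size and PDI were measured by DLS. Encapsulation came from RiboGreen fluorescence (485/528 nm) in TE pH 7.5, with and without 0.5% Triton at 37 °C for 30 min.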
# [2] = Encapsulation efficiency of lipid nanoparticles (Quant-it RiboGreen RNA Assay); type: physicochemical; settings: lipid nanoparticles with luciferase mRNA
# Procedure, shortened: as §1
# [3] = Clearance rate of ionizable lipids in vivo (liver content by LC-MS/MS); settings: C57 WT female mice, tail vein, 100 μL unloaded LNP (0.1 mg/mL)
# Protocol: The 6-8 weeks old C57 WT female mice (n=3) were injected by tail vein administration of 100 μL of unloaded LNP (0.1 mg/mL) formed from the ionizable lipid, cholesterol, DSPC, and DMG-PEG 2000 at a ratio of 50:38.5:10:1.5. The experimental animals were executed by removing the cervical vertebrae and dissected for the liver at 24 h and 72 h after administration, respectively, while the same batch of non-dosed experimental animal livers were used as a blank control group. Water was added to the liver sample for homogenization, and the protein was precipitated. The content of the ionizable lipid in the sample was quantitatively analyzed using LC-MS/MS in comparison to a calibration standard prepared from matched blank liver tissues.
# C57BL/6 mice = assay: In vivo delivery of luciferase mRNA lipid nanoparticles in mice (bioluminescence imaging); settings: intravenous, single dose 0.5 mg/kg luciferase mRNA
# Procedure, shortened: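 Female C57BL/6 mice, 6-8 weeks old, received luciferase mRNA lipid nanoparticles as a single intravenous dose of 0.5 mg/kg mRNA. At 6 h, D-luciferin given intraperitoneally; 10 min later, mice were imaged under isoflurane anaesthesia. Values are group mean fluorescence intensity and total photon count.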
# HEK293T cells [4] = assay: Cytotoxicity testing with CCK-8 reagent; type: cell-based, human; settings: CCK-8, 24 h, relative to PBS negative control
# Protocol: (§2) The delivery effect and safety of nanoparticles encapsulated with luciferase mRNA were evaluated at the cellular level in vitro. The cells used in the assay were human embryonic kidney cells 293 (HEK293T cells) cultured in DMEM (Dulbecco's Modified Eagle Medium) (purchased from Thermo Fisher) containing 10% fetal bovine serum and 5% penicillin-streptomycin double antibiotics at a indoor temperature of 37° C. and a CO2 concentration of 5%. The cells were uniformly dispersed and spread in 48-well plates, and incubated in the incubator for 24 h. Then a solution of the lipid nanoparticles encapsulated with luciferase mRNA were added. After 24 h, the cells were lysed, and the intracellular expression intensity and relative light units (RLU) of luciferase in each type of lipid nanoparticles were measured with a luciferase detection reagent (purchased from Promega). The higher the intensity of expression, the higher the delivery efficiency of the lipid material at the cellular level. […] The absorbance values were read on a multifunctional microplate reader at an absorbance band of 450 nm. The ratio of the absorbance value of the nanoparticle-treated cells to that of the negative control was used as a characterization parameter for cell viability.
# HEK293T cells [5] = assay: In vitro delivery efficiency of luciferase mRNA nanoparticles (luciferase expression); type: cell-based, human; settings: 24 h
# Protocol: as §2
SMILES,Particle size (nm) [1] [nm],Particle-size distribution (PDI) [1],Encapsulation efficiency (%) [2] [%],"Percentage of cationic lipids in the liver in the total dose, 24 h after administration (%) [3] [%]","Percentage of cationic lipids in the liver in the total dose, 72 h after administration (%) [3] [%]","Percentage of cationic lipids in the liver in the total dose, 72 h after administration (%) ([3]; listed as control group)",Total photon count in vivo at 6 hours after administration (Total Flux) (C57BL/6 mice),Cell viability (%) (HEK293T cells [4]),Luciferase luminescence of cell lysate (HEK293T cells [5]) [RLU]
CCCCCCCCCOC(=O)CCCCCCCN(CCCO)CCCCCCC(C)(C)C(=O)OC(CCCCCCCC)CCCCCCCC [4a],103.7,0.005,92.87,<1,0,,3.25E+10,,
CCCCCCCCCC(=O)OCC(C)(C)CCCCCN(CCO)CCCCCCCC(=O)OCCC(CCCCCC)CCCCCC [10b],114.72,0.052,72.72,5 ± 3.1,<1,,3.15E+10,,
CCCCCCCCCC(=O)OCC(C)(C)CCCCCN(CCO)CCCCCCCC(=O)OCCCCC(CCCC)CCCC [12b],104.60,0.031,91.04,<1,0,,1.19E+10,,
CCCCCCCCCOC(=O)CCCCCCCN(CCO)CCCCC(C)(C)CCC(=O)OC(CCCCCCCC)CCCCCCCC [20a],102.13,0.032,87.83,,,,1.18E+11,105.11,6.55E+06
CCCCCCCCCC(=O)OCC1(CCCCCN(CCO)CCCCCCCC(=O)OCC(CCCCCCC)CCCCCCC)CC1 [22b],99.44,0.050,93.03,2,<1,,8.78E+10,,
CCCCCCCCCCOC(=O)OCCCCCCN(CCO)CCCCCC(C)(C)COC(=O)CCC(CCCCCC)CCCCCC [26b],113.77,0.14,94.58,8,<1,,6.53E+10,,
CCCCCCCCCOC(=O)OCCCCCCN(CCO)CCCCCCC(C)(C)C(=O)OC(CCCCCCCC)CCCCCCCC [30a],107.40,0.12,86.94,4,<2,,8.32E+10,,
CCCCC#CCCCOC(=O)CCCCCCCN(CCO)CCCCCCC(C)(C)C(=O)OC(CCCCCCCC)CCCCCCCC [56a],86.37,0.09,82.84,<1,<1,,3.23E+10,,
CCCCCCCCCC(=O)OCCCC(C)(C)CCCN(CCO)CCCCCCCCC(=O)OCC(CCCCCC)CCCCCC [111b],187.13,0.21,63.26,,,,3.98E+10,,
"CCCCCCCCCOC(=O)C(C)(C)CCCCCCN(CCO)CCCCCCC(C)(C)C(=O)OC(CCCCCCCC)CCCCCCCC [Control group, reference compound]",,,,92 ± 3.5,89 ± 4.7,about 90%,,,

# Second part, led by results:
Particle size (nm) [1] [nm],Particle-size distribution (PDI) [1],Encapsulation efficiency (%) [2] [%],"Percentage of cationic lipids in the liver in the total dose, 24 h after administration (%) [3] [%]","Percentage of cationic lipids in the liver in the total dose, 72 h after administration (%) [3] [%]","Percentage of cationic lipids in the liver in the total dose, 72 h after administration (%) ([3]; listed as control group)",SMILES,Total photon count in vivo at 6 hours after administration (Total Flux) (C57BL/6 mice),Cell viability (%) (HEK293T cells [4]),Luciferase luminescence of cell lysate (HEK293T cells [5]) [RLU]
113.08,0.022,94.61,<1,0,,CCCCCCCCCOC(=O)CCCCCCCN(CCO)CCCCCCC(C)(C)C(=O)OC(CCCCCCCC)CCCCCCCC [1a],3.52E+10,,
88.59,0.031,89.89,15 ± 4.2,<1,,CCCCCCCCCC(=O)OCC(C)(C)CCCCCN(CCO)CCCCCCCC(=O)OC(CCCCCCCC)CCCCCCCC [1b],9.34E+10,,
102.32,0.015,74.43,12 ± 3.8,<1,,CCCCCCCCCC(=O)OCC(C)(C)CCCCCN(CCCCO)CCCCCCCC(=O)OC(CCCCCCCC)CCCCCCCC [3b],1.41E+11,,
99.02,0.018,89.27,8 ± 2.7,<1,,CCCCCCCCCC(=O)OCC(C)(C)CCCCCN(CCO)CCCCCCCC(=O)OCC(CCCCCCC)CCCCCCC [13b],1.81E+11,,
102.67,0.07,93.58,<1,<1,,CCCCCCCCCCC(=O)OCC(C)(C)CCCCCN(CCCCCCCC(=O)OC(CCCCCCCCC)CCCCCCCCC)C(=O)SCCCN(C)C [39b],7.16E+10,,
175.67,0.17,69.74,,,,CCCCCCCCCC(=O)OCCCC(C)(C)CCCN(CCCO)CCCCCCCCC(=O)OCC(CCCCCC)CCCCCC [112b],1.31E+10,,
147.03,0.09,88.21,,,,CCCCCCCCCC(=O)OCCCC(C)(C)CCCN(CCCCO)CCCCCCCCC(=O)OCC(CCCCCC)CCCCCC [113b],2.09E+10,,
103.40,0.13,93.55,,,,CCCCCCCCCCC(=O)OCCCC(C)(C)CCCN(CCCO)CCCCCCC(=O)OCC(CCCCCCCCC)CCCCCCCCC [114b],4.53E+10,,
100.25,0.12,93.91,,,,CCCCCCCCCCC(=O)OCCCC(C)(C)CCCN(CCCCO)CCCCCCC(=O)OCC(CCCCCCCCC)CCCCCCCCC [115b],3.71E+10,,
120.13,0.09,90.71,,,,CCCCCCCCCCC(=O)OCCCC(C)(C)CCCN(CCCCO)CCCCCCCCC(=O)OCC(CCCCCCC)CCCCCCC [116b],1.96E+10,,
151.17,0.09,72.51,,,,CCCCCCCCCC(=O)OCC(C)(C)CCCCCN(CCCCO)CCCCCCCC(=O)OCC(CCCCCCC)CCCCCCC [117b],1.73E+10,,
